# Patent US8268292B2, “Obovatol having anti-anxiety activity” (Korea Research Institute of Bioscience and Biotechnology, priority 2005, dated 2012)
# What was measured:
# Format in all cases: in vivo
# ICR mice = assay: acute toxicity test on ICR mice; details: oral 10, 100 and 1000 mg/kg, observed for 2 weeks
# Experimental: (§1) The acute toxicity tests on ICR mice (mean body weight 25±5 g) and Sprague-Dawley rats (235±10 g, Biogenomics Co., Ltd.) were performed using the obovatol compound. Four groups consisting of 3 mice or rats was administrated orally with 10 mg/kg, 100 mg/kg and 1000 mg/kg of test sample or solvents (0.2 mL, […].) respectively and observed for 2 weeks.
# ICR male mice [1] = assay: elevated plus-maze model test
# Experimental: Animals and Drugs: ICR male mice weighing from 20 g to 28 g (5 or 6 weeks) were purchased from Daehan Biolink Co., Ltd. (Korea) and housed for at least 7 days prior to the experiment under 12-h light/dark cycle (lights on at 7:00 am) in a temperature-controlled (22±2° C.) animal facility. Food and water were freely accessible. All mice were maintained in accordance with the National Institute of Toxicological Research on the Korea Food and Drug Administration guideline for the care and use of laboratory animals. Diazepam (ample type) was purchased from Dea-Won Pharmaceutical Co. (South Korea) and was orally administered 30 min prior to the experiment. Obovatol was kindly gifted from Korea Research Institute of Bioscience and Biotechnology and was orally administered 60 min prior to the experiment.
# Treatment of Test Sample: obovatol prepared from Example 1 was dissolved in 0.1 ml of ethanol and diluted with 0.1% Tween-80 in order to administrate with an amount of 0.1 ml/10 g per weight of test animal. Various concentrations of test sample (obovatol), i.e., 0.2, 0.5 and 1 mg/kg were orally administrated at 1 hour prior to the experiment and […] of diazepam was peritoneally administrated into animal at 30 mins prior to the experiment.
# To determine the anti-anxiety activity after administration of obovatol, elevated plus-maze model test was performed as follow in accordance with procedure cited in the literature (Dawson, G. R. et al., Trends in Pharmacological Sciences, 16, pp. 33-36, 1995).
# Elevated plus-maze apparatus consists of two perpendicular open (30×5 cm) and two closed arms (30×5 cm) with 15 cm high walls, extending from the central platform (5×5 cm). […] All experimental sessions were recorded with a video camera mounted vertically above the maze. The activity on the open arm was evaluated as: 1) time spent on the open arms relative to the total time spent in the plus-maze, expressed as a percentage (100× time spent on open arm/total time in the plus-maze); 2) the number of entries into both open and closed arms, expressed as a percentage (100× open/total entries). […]
# Sprague-Dawley rats = assay: acute toxicity test on Sprague-Dawley rats; details: oral 10, 100 and 1000 mg/kg, observed for 2 weeks
# Experimental: as §1
# ICR male mice [2] = assay: locomoter activity test; details: oral 0.2, 0.5 and 1.0 mg/kg; dose dependent
# Experimental: All the animals used in the test are prepared in the similar method according to Experimental Example 1.
# To determine and re-confirm the anti-anxiety activity of obovatol, following locomoter activity test was performed as follow in accordance with the procedure cited in the literature (Kulkarni S. K. et al., Methods and Findings in Experimental and Clinical Pharmacology, 18, pp. 219-230, 1996).
# All the animals were transferred to test cage (diameter: 20 cm, height: 18 cm) one hour prior to the administration of test samples, acclimated the environment for 10 mins and the locomoter activity was determined automatically at every 1 hour.
substance,measurement,setting,value
obovatol,"treatment-related effects on mortality, clinical signs, body weight changes and gross findings",ICR mice,no treatment-related effects
same,anti-anxiety activity relative to diazepam,"ICR male mice [1]; at the same doses of the drugs, elevated plus-maze, FIG. 3 and FIG. 4",more potent anti-anxiety activity than diazepam
same,percentage of time spent in the open arms,"ICR male mice [1]; oral 0.2, 0.5 and 1.0 mg/kg, 60 min prior (P<0.05, P<0.05 and P<0.005)",significant increases
same,percentage of entries into open arms,"ICR male mice [1]; oral 0.2, 0.5 and 1.0 mg/kg, 60 min prior, dose dependent, compared with diazepam treated group (P<0.05, P<0.05 and P<0.005)",significantly increased
same,"treatment-related effects on mortality, clinical signs, body weight changes and gross findings",Sprague-Dawley rats,no treatment-related effects
same,locomoter activity,ICR male mice [2],significantly decreased
